# Earlier results as cited in US20200038305A1, “Sunscreen or Sunblock Composition” (Divios LLC, priority 2018, published 2020).
smiles,measurement,value
"C=C(C)[C@@H]1CCC(C)=C[C@H]1c1c(O)cc(CCCCC)cc1O [CBD, cannabidiol]",Aqueous solubility,10 µg/mL
